Common to all, as to experiment: Kinase panel (Cerep)
Holding throughout (format): biochemical

The target in one assay is T1, KDR kinase (h) (VEGFR2) (Homo sapiens, UniProt P35968).
T1 construct: purchased Eurofins Cerep
The settings on record: read-out: % inhibition at 10 µM by MC3353, KDR kinase (h) (VEGFR2), ATP 25 μM. As to the method: (§1) The test compound, reference compound or water (control) were mixed with the enzyme (for the exact amount see table below) in the appropriate buffer. Thereafter, the reaction was initiated by adding the required amount of the appropriate substrate and of ATP, and the mixture is incubated at room temperature (variable reaction time, see table below). For control basal measurements, the enzyme was omitted from the reaction mixture. Following incubation, the reaction was stopped by adding 13 mM EDTA. After 5 min, the proper antibody labelled with europium chelate was added. After 60 more min, the fluorescence transfer was measured at λex=337 nm, λem=620 nm and λem=665 nm using a microplate reader (Envision, Perkin Elmer). The enzyme activity was determined by dividing the signal measured at 665 nm by that measured at 620 nm (ratio). The results are expressed as a percent inhibition of the control enzyme activity.

In another assay the target is T2, FGFR3 kinase (h) (Homo sapiens, UniProt P22607).
T2 construct: purchased Eurofins Cerep
The settings on record: read-out: % inhibition at 10 µM by MC3353, FGFR3 kinase (h), ATP 10 μM. As to the method: as §1

The next assay has as its target T3, RAF-1 kinase (h) (Homo sapiens, UniProt P04049).
T3 construct: purchased Eurofins Cerep
The settings on record: read-out: % inhibition at 10 µM by MC3353, RAF-1 kinase (h), ATP 10 μM. The method, then:
as §1

The target in another assay is T4, Lck kinase (h) (Homo sapiens, UniProt P06239).
T4 construct: purchased Eurofins Cerep
T4 sequence (P06239 whole entry): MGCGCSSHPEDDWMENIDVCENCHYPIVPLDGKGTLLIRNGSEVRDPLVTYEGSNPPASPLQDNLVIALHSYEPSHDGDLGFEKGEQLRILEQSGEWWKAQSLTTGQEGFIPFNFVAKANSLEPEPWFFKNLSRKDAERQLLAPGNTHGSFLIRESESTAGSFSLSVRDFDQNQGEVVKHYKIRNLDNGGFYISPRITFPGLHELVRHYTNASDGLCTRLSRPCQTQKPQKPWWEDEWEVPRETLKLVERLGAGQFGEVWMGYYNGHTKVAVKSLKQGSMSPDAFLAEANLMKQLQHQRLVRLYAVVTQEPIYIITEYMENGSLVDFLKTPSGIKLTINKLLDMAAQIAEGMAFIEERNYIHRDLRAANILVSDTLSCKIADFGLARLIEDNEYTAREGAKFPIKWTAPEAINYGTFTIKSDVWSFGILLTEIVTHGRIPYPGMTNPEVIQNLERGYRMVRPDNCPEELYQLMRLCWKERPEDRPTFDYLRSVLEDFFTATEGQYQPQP
The conditions noted are these: read-out: % inhibition at 10 µM by MC3353, Lck kinase (h), ATP 10 μM. The method, then: as §1

Another assay has as its target T5, FGFR1 kinase (h) (Homo sapiens, UniProt P11362).
T5 construct: purchased Eurofins Cerep
The settings on record: read-out: % inhibition at 10 µM by MC3353, FGFR1 kinase (h), ATP 100 μM. As to the method:
as §1

In another assay the target is T6, CHK2 (h) (Homo sapiens, UniProt O96017).
T6 construct: purchased Eurofins Cerep
The settings on record: read-out: % inhibition at 10 µM by MC3353, CHK2 (h), ATP 30 μM. As to the method:
as §1

The target of the next assay is T7, ERK2 (h) (P42mapk) (Homo sapiens, UniProt P28482).
T7 construct: purchased Eurofins Cerep
T7 sequence (P28482 whole entry): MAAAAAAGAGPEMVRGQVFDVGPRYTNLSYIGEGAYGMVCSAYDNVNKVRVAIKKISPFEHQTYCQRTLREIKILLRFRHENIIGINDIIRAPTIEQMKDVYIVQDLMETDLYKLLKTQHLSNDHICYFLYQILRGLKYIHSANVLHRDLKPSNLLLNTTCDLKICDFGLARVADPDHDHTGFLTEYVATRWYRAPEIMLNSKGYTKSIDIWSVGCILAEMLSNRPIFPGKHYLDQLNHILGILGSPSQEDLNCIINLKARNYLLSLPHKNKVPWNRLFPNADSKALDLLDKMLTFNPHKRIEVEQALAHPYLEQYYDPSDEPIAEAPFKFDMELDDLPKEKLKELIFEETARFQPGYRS
The settings on record: read-out: % inhibition at 10 µM by MC3353, ERK2 (h) (P42mapk), ATP 10 μM. As to the method:
as §1

The next assay addresses T8, PDK1 (h) (Homo sapiens, UniProt O15530).
T8 construct: purchased Eurofins Cerep
The conditions noted are these: read-out: % inhibition at 10 µM by MC3353, PDK1 (h), ATP 10 μM. As to the method: as §1

Another assay has as its target T9, MNK2 (h) (Homo sapiens, UniProt Q9HBH9).
T9 construct: purchased Eurofins Cerep
The settings on record: read-out: % inhibition at 10 µM by MC3353, MNK2 (h), ATP 100 μM. As to the method: as §1

Another assay has as its target T10, c-Met kinase (h) (Homo sapiens, UniProt P08581).
T10 construct: purchased Eurofins Cerep
The settings on record: read-out: % inhibition at 10 µM by MC3353, c-Met kinase (h), ATP 10 μM. The method, then: as §1

The next assay has as its target T11, p38alpha kinase (h) (Homo sapiens, UniProt Q16539).
T11 construct: purchased Eurofins Cerep
The conditions noted are these: read-out: % inhibition at 10 µM by MC3353, p38alpha kinase (h), ATP 100 μM. As to the method: as §1

The next assay concerns the target T12, IRK (h) (InsR) (Homo sapiens, UniProt P06213).
T12 construct: purchased Eurofins Cerep
The conditions noted are these: read-out: % inhibition at 10 µM by MC3353, IRK (h) (InsR), ATP 30 μM. The method, then:
as §1

In a further assay the target is T13, Src kinase (h) (Homo sapiens, UniProt P12931).
T13 construct: purchased Eurofins Cerep
The conditions noted are these: read-out: % inhibition at 10 µM by MC3353, Src kinase (h), ATP 5 μM. As to the method: as §1

A further assay has as its target T14, CaMK2alpha (h) (Homo sapiens, UniProt Q9UQM7).
T14 construct: purchased Eurofins Cerep
The conditions noted are these: read-out: % inhibition at 10 µM by MC3353, CaMK2alpha (h), ATP 10 μM. As to the method:
as §1

The target of a further assay is T15, NEK2 (h) (Homo sapiens, UniProt P51955).
T15 construct: purchased Eurofins Cerep
The conditions noted are these: read-out: % inhibition at 10 µM by MC3353, NEK2 (h), ATP 10 μM. The method, then:
as §1

For the next assay, the target named is T16, PAK4 (h) (Homo sapiens, UniProt O96013).
T16 construct: purchased Eurofins Cerep
The conditions noted are these: read-out: % inhibition at 10 µM by MC3353, PAK4 (h), ATP 1 μM. The method, then: as §1

Another assay deals with T17, PKCbeta 2 (h) (Homo sapiens, UniProt P05771).
T17 construct: purchased Eurofins Cerep
The settings on record: read-out: % inhibition at 10 µM by MC3353, PKCbeta 2 (h), ATP 30 μM. The method, then:
as §1

For a further assay, the target named is T18, FGFR2 kinase (h) (Homo sapiens, UniProt P21802).
T18 construct: purchased Eurofins Cerep
T18 sequence (P21802 22-821): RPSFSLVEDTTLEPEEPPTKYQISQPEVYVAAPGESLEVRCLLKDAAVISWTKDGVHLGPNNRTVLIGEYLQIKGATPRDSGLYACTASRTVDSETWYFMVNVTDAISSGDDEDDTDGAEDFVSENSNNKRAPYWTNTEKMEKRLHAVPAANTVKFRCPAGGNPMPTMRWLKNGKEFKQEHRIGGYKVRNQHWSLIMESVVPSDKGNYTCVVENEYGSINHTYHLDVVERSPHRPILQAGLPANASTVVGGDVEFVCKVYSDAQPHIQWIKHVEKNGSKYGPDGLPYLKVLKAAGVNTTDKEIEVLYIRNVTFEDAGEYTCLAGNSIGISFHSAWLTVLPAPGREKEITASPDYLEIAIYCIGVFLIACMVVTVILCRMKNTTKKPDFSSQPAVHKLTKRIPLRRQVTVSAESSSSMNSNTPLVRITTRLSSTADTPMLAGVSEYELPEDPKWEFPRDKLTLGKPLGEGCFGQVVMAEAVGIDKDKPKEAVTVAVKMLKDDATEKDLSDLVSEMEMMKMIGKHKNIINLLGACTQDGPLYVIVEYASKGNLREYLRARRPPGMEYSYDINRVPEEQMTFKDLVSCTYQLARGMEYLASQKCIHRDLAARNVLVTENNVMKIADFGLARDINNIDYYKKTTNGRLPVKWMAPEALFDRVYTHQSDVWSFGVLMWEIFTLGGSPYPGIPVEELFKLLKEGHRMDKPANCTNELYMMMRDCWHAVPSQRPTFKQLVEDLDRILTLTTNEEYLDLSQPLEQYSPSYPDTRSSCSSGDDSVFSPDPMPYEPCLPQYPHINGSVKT
The settings on record: read-out: % inhibition at 10 µM by MC3353, FGFR2 kinase (h), ATP 10 μM. As to the method: as §1

A further assay deals with T19, IKKalpha (h) (Homo sapiens, UniProt O15111).
T19 construct: purchased Eurofins Cerep
The settings on record: read-out: % inhibition at 10 µM by MC3353, IKKalpha (h), ATP 5 μM. The method, then:
as §1

The target of another assay is T20, CDC2/CDK1 (h) (cycB) (Homo sapiens, UniProt P06493).
T20 construct: purchased Eurofins Cerep
The settings on record: read-out: % inhibition at 10 µM by MC3353, CDC2/CDK1 (h) (cycB), ATP 10 μM. As to the method:
as §1

The target in a further assay is T21, ROCK1 (h) (Homo sapiens, UniProt Q13464).
T21 construct: purchased Eurofins Cerep
T21 sequence (Q13464 whole entry): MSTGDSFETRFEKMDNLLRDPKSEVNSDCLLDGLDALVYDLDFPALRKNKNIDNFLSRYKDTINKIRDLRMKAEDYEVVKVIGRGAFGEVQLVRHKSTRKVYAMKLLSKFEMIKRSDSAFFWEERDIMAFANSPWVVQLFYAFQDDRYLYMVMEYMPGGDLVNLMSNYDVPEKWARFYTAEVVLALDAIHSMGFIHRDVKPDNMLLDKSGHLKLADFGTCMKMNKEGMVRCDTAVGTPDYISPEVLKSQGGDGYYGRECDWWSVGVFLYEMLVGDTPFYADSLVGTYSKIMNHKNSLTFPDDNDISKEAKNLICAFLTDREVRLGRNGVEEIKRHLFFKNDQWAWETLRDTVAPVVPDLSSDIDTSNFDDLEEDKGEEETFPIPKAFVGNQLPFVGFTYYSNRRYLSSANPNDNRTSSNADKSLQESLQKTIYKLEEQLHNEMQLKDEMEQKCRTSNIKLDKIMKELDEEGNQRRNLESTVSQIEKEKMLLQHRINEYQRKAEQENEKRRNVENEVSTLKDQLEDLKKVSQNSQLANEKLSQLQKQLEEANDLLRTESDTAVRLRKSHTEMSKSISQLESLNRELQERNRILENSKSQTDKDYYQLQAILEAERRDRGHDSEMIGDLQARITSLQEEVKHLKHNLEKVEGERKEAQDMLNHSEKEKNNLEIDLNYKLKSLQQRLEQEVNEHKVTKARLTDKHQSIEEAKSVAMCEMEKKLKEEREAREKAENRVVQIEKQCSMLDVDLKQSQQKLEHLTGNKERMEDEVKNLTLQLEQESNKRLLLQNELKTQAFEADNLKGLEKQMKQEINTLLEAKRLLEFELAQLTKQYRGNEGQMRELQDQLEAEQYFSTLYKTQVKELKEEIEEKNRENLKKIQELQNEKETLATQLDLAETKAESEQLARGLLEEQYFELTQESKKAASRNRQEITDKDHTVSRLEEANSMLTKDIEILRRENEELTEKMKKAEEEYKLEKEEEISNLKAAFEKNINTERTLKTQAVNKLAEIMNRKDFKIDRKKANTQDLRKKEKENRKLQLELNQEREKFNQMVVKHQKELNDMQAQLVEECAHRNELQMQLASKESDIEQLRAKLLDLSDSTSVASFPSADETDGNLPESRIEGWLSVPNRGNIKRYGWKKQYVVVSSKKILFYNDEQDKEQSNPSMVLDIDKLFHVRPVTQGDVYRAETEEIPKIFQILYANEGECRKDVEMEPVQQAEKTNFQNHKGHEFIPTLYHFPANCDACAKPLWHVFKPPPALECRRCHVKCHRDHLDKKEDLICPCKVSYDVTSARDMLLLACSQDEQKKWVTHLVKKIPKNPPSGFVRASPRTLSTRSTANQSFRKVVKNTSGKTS
The settings on record: read-out: % inhibition at 10 µM by MC3353, ROCK1 (h), ATP 1 μM. The method, then:
as §1

The next assay has as its target T22, Pim2 kinase (h) (Homo sapiens, UniProt Q9P1W9).
T22 construct: purchased Eurofins Cerep
The settings on record: read-out: % inhibition at 10 µM by MC3353, Pim2 kinase (h), ATP 3 μM. As to the method:
as §1

Another assay deals with T23, AurA/Aur2 kinase (h) (Homo sapiens, UniProt O14965).
T23 construct: purchased Eurofins Cerep
T23 sequence (O14965 whole entry): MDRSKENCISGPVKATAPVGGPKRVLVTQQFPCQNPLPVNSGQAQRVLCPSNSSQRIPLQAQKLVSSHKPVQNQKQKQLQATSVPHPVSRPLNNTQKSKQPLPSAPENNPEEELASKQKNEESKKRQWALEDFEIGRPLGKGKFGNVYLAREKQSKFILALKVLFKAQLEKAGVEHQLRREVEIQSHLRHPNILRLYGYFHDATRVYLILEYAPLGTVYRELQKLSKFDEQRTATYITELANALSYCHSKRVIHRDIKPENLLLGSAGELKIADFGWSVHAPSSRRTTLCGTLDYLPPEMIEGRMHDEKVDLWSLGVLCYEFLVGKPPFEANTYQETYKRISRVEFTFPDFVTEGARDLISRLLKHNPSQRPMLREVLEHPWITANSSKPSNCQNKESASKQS
The settings on record: read-out: % inhibition at 10 µM by MC3353, AurA/Aur2 kinase (h), ATP 10 μM. The method, then: as §1

The structures appear in SMILES notation.

T10 sequence (P08581 25-1390): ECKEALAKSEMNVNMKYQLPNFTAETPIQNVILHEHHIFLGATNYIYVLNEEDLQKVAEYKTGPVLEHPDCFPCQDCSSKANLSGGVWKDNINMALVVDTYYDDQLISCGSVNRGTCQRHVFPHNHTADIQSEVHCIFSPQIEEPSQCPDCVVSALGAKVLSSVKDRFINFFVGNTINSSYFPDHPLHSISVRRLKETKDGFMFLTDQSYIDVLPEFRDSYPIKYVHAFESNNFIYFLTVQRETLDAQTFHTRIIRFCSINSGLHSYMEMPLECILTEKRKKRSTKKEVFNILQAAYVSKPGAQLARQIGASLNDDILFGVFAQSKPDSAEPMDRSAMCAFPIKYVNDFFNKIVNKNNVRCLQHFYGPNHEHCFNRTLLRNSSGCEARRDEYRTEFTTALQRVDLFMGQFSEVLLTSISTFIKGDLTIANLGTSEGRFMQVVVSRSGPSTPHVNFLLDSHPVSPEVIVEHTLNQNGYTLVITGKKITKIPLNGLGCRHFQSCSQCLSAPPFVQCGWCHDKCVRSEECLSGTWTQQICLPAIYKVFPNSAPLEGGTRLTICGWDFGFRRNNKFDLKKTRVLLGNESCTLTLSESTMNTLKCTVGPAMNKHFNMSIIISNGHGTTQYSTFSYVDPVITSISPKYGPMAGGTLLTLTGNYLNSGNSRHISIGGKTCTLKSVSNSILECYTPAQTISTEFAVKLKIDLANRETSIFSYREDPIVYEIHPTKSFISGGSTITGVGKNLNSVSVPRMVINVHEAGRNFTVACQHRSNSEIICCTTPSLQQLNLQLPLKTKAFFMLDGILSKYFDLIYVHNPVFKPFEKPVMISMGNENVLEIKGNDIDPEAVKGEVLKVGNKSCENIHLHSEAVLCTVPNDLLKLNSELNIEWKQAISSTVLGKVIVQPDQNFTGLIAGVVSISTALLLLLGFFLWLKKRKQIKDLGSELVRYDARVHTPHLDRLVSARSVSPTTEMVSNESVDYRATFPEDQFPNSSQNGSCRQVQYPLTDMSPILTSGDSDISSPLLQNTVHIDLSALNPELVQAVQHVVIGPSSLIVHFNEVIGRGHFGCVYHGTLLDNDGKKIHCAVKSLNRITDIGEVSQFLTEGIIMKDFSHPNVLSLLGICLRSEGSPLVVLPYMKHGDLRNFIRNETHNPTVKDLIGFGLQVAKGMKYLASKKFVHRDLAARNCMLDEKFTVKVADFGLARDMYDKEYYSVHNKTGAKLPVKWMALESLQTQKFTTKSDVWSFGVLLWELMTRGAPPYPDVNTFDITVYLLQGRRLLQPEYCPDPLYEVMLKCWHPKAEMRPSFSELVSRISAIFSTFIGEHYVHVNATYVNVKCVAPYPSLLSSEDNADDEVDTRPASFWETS

Regarding `O=C(Nc1ccc(NC(=O)c2ccc(Nc3ccnc4ccccc34)cc2)cc1)OCc1ccccc1` [MC3353, Benzyl (4-(4-(quinolin-4-ylamino)benzamido)phenyl)carbamate], the inhibition at 10 µM at KDR kinase (h) (VEGFR2) was -111%; on FGFR3 kinase (h), -169%; at RAF-1 kinase (h) it was 60%; at Lck kinase (h) it was 4%; at FGFR1 kinase (h) it was -200%; on CHK2 (h), -30%. Besides, the inhibition at 10 µM is -21% on ERK2 (h) (P42mapk); -149% at PDK1 (h); 21% at MNK2 (h); -116% at c-Met kinase (h); -58% at p38alpha kinase (h); 38% on IRK (h) (InsR). The inhibition at 10 µM at Src kinase (h) is 57%; at CaMK2alpha (h) it was -22%; on NEK2 (h) it was -9%; at PAK4 (h), -4%; on PKCbeta 2 (h), 11%; on FGFR2 kinase (h) it was 19%. The inhibition at 10 µM on IKKalpha (h) is 18%; on CDC2/CDK1 (h) (cycB) it was -25%; on ROCK1 (h), -51%; on Pim2 kinase (h), 20%; at AurA/Aur2 kinase (h), 4%.

Values taken from PMC6501426 (Clinical Epigenetics, 2019).
